Reference: patent US5710151A, “Method of treating urinary bladder dysfunctions” (priority 1996, dated 1998)
Counter-ions that a name gives are not always drawn. Blank lines part the entries; values can stand above or below the molecule they belong to.

What was measured:
muscarinic receptors = test: inhibition of binding of 3H-oxotremorine-M to muscarinic receptors; conditions: 3 nM 3H-oxotremorine-M, rat cerebral cortical membranes, pH 7.4, 15 min, 25° C.; read-out: Inhibition of ^3 H-Oxo
Description: The affinity of the compounds for the muscarinic receptors was determined using the non-selective agonist ligand, ^3 H-oxotremorine-M. Birdsdall N. J. M., Hulme E. C., and Burgen A. S. V. "The Character of Muscarinic Receptors in Different Regions of the Rat Brain", 207 Proc. Roy. Soc. 1 (London, Series B, 1980). Each compound was tested to determine the affinity of the compound for the muscarinic receptors using the following procedure.
For in vitro binding, male Sprague-Dawley (Harlan Sprague-Dawley, Indianapolis, Ind.) rats weighing from about 100 to about 150 grams each were sacrificed by decapitation. The brains were quickly removed and the cerebral cortex were dissected from the brain. The cerebral cortex tissue was homogenized in 10 volumes of 0.32M sucrose and […] at about 1000×g. The supernatant was centrifuged at about 12,000×g for about 10 minutes and the resulting pellet was resuspended in 20 mM tris-Cl, pH 7.4. The resuspended pellet was centrifuged again for about 10 minutes at about 50,000×g. The resulting homogenate was preincubated for about 10 minutes at about 25° C. and centrifuged again for about 10 minutes at about 50,000×g. The pellet was resuspended at 1 gram of pellet per 3 ml of buffer and frozen at about -80° C. until used.
The inhibition of binding of ^3 H-oxotremorine-M to muscarinic receptors was determined by mixing the compound of the Example, 3 nM ^3 H-oxotremorine-M (about 87 Ci/mmoles, New England Nuclear, Boston Mass.), and cerebral cortical membranes equivalent to about 10 mg wet weight, which is about 100 μg of cortical membrane protein, in about 1 ml total volume of […] tris-Cl buffer, pH 7.4, containing 1 mM MnCl2. The aforementioned homogenates mixture was incubated for about 15 minutes at about 25° C. and then the homogenates were filtered through glass filters (Whatman, GF/C) with vacuum. The filters were washed 3 times with about 2 ml of cold tris-Cl buffer, and placed in scintillation vials containing about 10 ml of scintillation fluid (Ready Protein+, Beckman, Fullerton, Calif.). Radioactivity trapped on the filters was determined by liquid scintillation spectrometry. Nonspecific binding was determined using 1 μM atropine. The concentration of compound required to inhibit specific binding 50% (IC50) was determined using standardized computer assisted calculations (DeLean, A. et al. Am. J. Physiol., 235, (1978)).

vesico-anal reflex = test: acetic acid-induced vesico-anal reflex; assay type: in vivo, rat; conditions: for duration of the increase in vesico-anal reflex activity when administered alone / vesico-anal reflex activity when administered alone: atropine 30 μg/kg-1 mg/kg, oxybutynin 1-3 mg/kg
Excerpt: The model of visceral nociception that was used in the testing of the compounds according to the method of this invention is the acetic acid-induced vesico-anal reflex. This model utilizes infusion of a dilute acetic acid solution into the urinary bladder as a nociceptive stimulus and records increases in electromyographic (EMG) activity from the anal sphincter as the primary measured response. Anal sphincter EMG activity is composed of 2 components, 1) a small, long duration action potential (ca. 50 msec) that is sensitive to muscarinic antagonists and 2) a larger, short duration action potential (ca. 2 msec) that is sensitive to neuromuscular blocking agents (i.e. mediated by nicotinic receptors). […] It is the striated anal sphincter muscle activity that 1) is associated with bladder activity, 2) is increased by acetic acid infusion into the bladder, and 3) represents the vesico-anal reflex.
In the acetic acid-induced vesico-anal reflex model, bladders of urethane-anesthetized rats were cannulated through the dome for continuous-infusion cystometrogram recordings. EMG electrodes were inserted into the anus and the peri-urethral musculature for recording anal and urethral sphincteric activity, respectively.
Female Sprague-Dawley rats (200-300 g) were anesthetized with 1.4 g/kg urethane (0.7 g administered i.p. and 0.7 g administered s.c.), which was supplemented with 1% isoflurane during surgery. The urinary bladder was exposed through an abdominal incision and cannulated with PE60 tubing attached to a 22 gauge needle that was inserted through the dome of the bladder. A purse-string suture (5-0 silk) through the bladder held the needle in place. The cannula was connected to an infusion pump (Harvard Apparatus, Natick Mass.) and a pressure transducer (Statham Gould, Cleveland, Ohio) through a 3 way stopcock to allow bladder filling and pressure measurement, respectively. The abdominal incision was covered with plastic wrap. A small incision was made in the perineum to allow placement of EMG electrodes into the periurethral musculature. EMG electrodes were also placed into the muscular tissue of the anus. EMG electrodes were connected to preamplifiers (Grass P511, Quincey, Mass.) with low and high pass filters set at 10 and 3000 HZ. […] A catheter inserted into the carotid artery was connected to a pressure transducer (Statham Gould, Cleveland, Ohio) to record arterial pressure, which was used to trigger a heart rate meter (Biotach, Gould, Cleveland, Ohio). A catheter was inserted into the trachea to allow for artificial respiration and monitoring of expired CO2 (Sensor Medics. Anaheim, Calif.).
After establishing control levels of anal and urethral activity, compounds were administered intravenously. Oxotremorine sesquifumarate (Sigma Chemicals, St. Louis, Mo.), atropine sulfate (RBI, Natick, Mo.), (-) scopolamine methyl bromide (RBI), physostigmine free base (Sigma Chemicals), neostigmine bromide (Sigma) and the test compounds were all dissolved in physiological saline.

[1] = 0.5% acetic acid infused into the bladder or urethra

IC50 (muscarinic receptors): 10 nM
Structure (SMILES): CC(C)CCCSc1nsnc1[C@H]1CN2CCC[C@H]1C2 [Compound 157, (5R,6R)-6-(3-isohexylthio-1,2,5-thiadiazol-4-yl)-1-azabicyclo[3.2.1]octane (+) L-tartrate]

IC50 (muscarinic receptors): 10 nM
Structure (SMILES): CC(C)CCCSc1nsnc1[C@@H]1CN2CCC[C@@H]1C2 [Compound 158, (5S,6S)-6-(3-isohexylthio-1,2,5-thiadiazol-4-yl)-1-azabicyclo[3.2.1]octane oxalate]

IC50 (muscarinic receptors): 0.76 nM
Structure (SMILES): FC(F)(F)CCCSc1nsnc1[C@H]1CN2CCC[C@H]1C2 [Compound 167, (5R,6R)-6-(3-(4,4,4-trifluorobutylthio)-1,2,5-thiadiazol-4-yl)-1-azabicyclo[3.2.1]octane oxalate]

Structure (SMILES): O=C1CCCN1CC#CCN1CCCC1 [Oxotremorine, Oxotremorine sesquifumarate]
inhibition of vesico-anal reflex activity (in words) (vesico-anal reflex; oxotremorine 1-30 μg/kg iv, test compounds 0.01-1.0 mg/kg iv): dose-dependent inhibition of vesico-anal reflex activity | inhibition of vesico-anal reflex activity (to % of control) (vesico-anal reflex; oxotremorine 1-30 μg/kg iv, urethane-anesthetized rats): 10 % of control

Structure (SMILES): C[N+]1(C)[C@@H]2C[C@@H](OC(=O)[C@H](CO)c3ccccc3)C[C@H]1[C@@H]1O[C@@H]12 [Scopolamine methyl bromide, (-) scopolamine methyl bromide]
blocking of the cholinergic agonist-mediated inhibition of the vesico-anal reflex (vesico-anal reflex; scopolamine methyl bromide 1-30 ug/kg, peripherally-restricted): ineffective

Structure (SMILES): CC(=O)O [acetic acid]
anal sphincter activity (vesico-anal reflex; [1]): pronounced increases in anal sphincter activity | bladder contractile activity and urethral sphincter activity (vesico-anal reflex; [1]): modest increases in bladder contractile activity and urethral sphincter activity | duration of acetic acid-induced increase in vesico-anal reflex activity (vesico-anal reflex; in 95% of the animals): over 2 hours

Structure (SMILES): CN1C2CCC1CC(OC(=O)C(CO)c1ccccc1)C2 (stereo not drawn) [atropine, atropine sulfate]
duration of the increase in vesico-anal reflex activity when administered alone (vesico-anal reflex): 15 min | vesico-anal reflex activity when administered alone (vesico-anal reflex): robust, but transient (15 min.), increases in vesico-anal reflex activity | reversal of the cholinergic agonist-induced inhibition of vesico-anal reflex activity (vesico-anal reflex; atropine 0.3-1 mg/kg): reversed

Structure (SMILES): CCN(CC)CC#CCOC(=O)C(O)(c1ccccc1)C1CCCCC1 (stereo not drawn) [oxybutynin]
duration of the increase in vesico-anal reflex activity when administered alone (vesico-anal reflex): 15 min | vesico-anal reflex activity when administered alone (vesico-anal reflex): robust, but transient (15 min.), increases in vesico-anal reflex activity

Structure (SMILES): CNC(=O)Oc1ccc2c(c1)[C@]1(C)CCN(C)[C@@H]1N2C [physostigmine, physostigmine free base]
suppression of the VA reflex by cholinesterase inhibitor (vesico-anal reflex; centrally active (physostigmine) vs peripherally-restricted (neostigmine)): suppressed the VA reflex in a dose-dependent, atropine-sensitive manner
